Results published in patent US20230331604A1, “METHOD FOR THE ELECTROCHEMICAL CONTROL OF THE PHOTOSYNTHETIC METABOLISM OF PURPLE NON-SULFUR BACTERIA AND REDOX MEDIATORS THEREOF” (Zuccato HC S.r.l., priority 2020, published 2023).

How the values were obtained:
[1] = tested on: Rhodobacter sphaeroides (ATCC 55304); assay: bacteriochlorophyll synthesized by Rhodobacter sphaeroides under electrochemical control vs aerobic growth (absorption spectra); assay type: cell-based; details: 50 nM safranin, acetone/methanol extract, absorbance normalized to 660 nm
Method: A homemade potentiostat was used as an external source of free energy, capable of providing a current of up to 100 mA and keeping the potential constant within the range of −2 V÷+2 V).
The materials of the electrodes used are: • Working electrode: stainless steel grid with 1 mm mesh spacing. • Counter electrode: graphite bars (0.8 cm in diameter, 30 cm long) • Reference electrode: (SCE)
Safranin T, molecular mass equal to 350.85. (Fluka) at a concentration equal to 50 nM, was used as redox mediator in the cell.
The solution inside the fermenter/reactor was kept under mild stirring to facilitate the recirculation of the redox mediator molecules.

[2] = equilibrium potential of the redox mediator; assay type: physicochemical; details: vs SCE reference electrode
From the text: This is enabled by the use of suitable fat-soluble redox mediators ([2], [3]) capable of permeabilizing the bacterial membrane and entering the cytoplasm, in order to alter the oxidation state of the disulfide bond present in type A thioredoxins, as well as by appropriate light irradiation.

equilibrium potential [2]: about −540 mV
Structure (SMILES): Cc1cc2nc3cc(C)c(N)cc3[n+](-c3ccccc3)c2cc1N.[Cl-] [Safranin T, safranin T]
intensity of bacteriochlorophyll absorption bands compared to the corresponding aerobic population [1]: almost tripled
